Where two headings read alike, the source gives them in different places. Peptide text beside a SMILES is read from it. * marks the point of attachment. Succinimide(1-Et,3-yl) = CCN1C(=O)CC(*)C1=O; Bn = c1ccc(C*)cc1; X1 = Cc1ccc(*)cc1; Cam = NC(=O)C*
Assay: Stability evaluation of peptide P1 cysteine conjugates in the presence of base, acid or an external thiol nucleophile (LC-MS)
Format: physicochemical
Details: for stability toward acids (in words): acidic conditions; for stability toward bases (in words): basic conditions; for stability toward external thiol nucleophiles (in words): exogenous thiol
Description: All reported yields were determined by integrating TIC spectra. First, the peak areas for all relevant peptide-containing species on the chromatogram were integrated using Agilent MassHunter software package. Since no peptide-based side products were generated in the experiments, the yields shown in Table 2 were determined as follows: % yield=Spr/Stotal where Spr is the peak area of the product and Stotal is the peak area of combined peptide-containing species (product and starting material). The yield of the stapled peptide (Example 19) was calculated as follows: % yield=k·Spr/Sst where Spr is the peak area of the reaction product, Sst is the peak area of a known amount of purified product, and k equals to the ratio of the known amount of standard divided by the initial amount of starting material. For peptide stability experiments the conversion was calculated as following: % remaining peptide=St/S0 where St is the peak area of the corresponding cysteine conjugate at time t, and S0 is the peak area of the cysteine conjugate at time 0.
Peptide P1 conjugates were pre-dissolved in water in plastic Eppendorfs to afford the 1.11 mM stock solutions used in the stability evaluation experiments. For each experiment, the corresponding cysteine conjugate (1.11 mM; 18 μL) and stability test reagent (2 μL, 50 mM in H2O or 50 mM in 1M Tris, pH 7.4) were combined in a plastic Eppendorf and left at rt for 2 days, followed by 4 days at 37° C. After this time, individual reactions were quenched with a solution of 50% A:50% B (v/v, 200 μL) and the resulting samples were analyzed by LC-MS.
Stability test reagent: K2CO3 (2 μL, 50 mM in H2O); Final conditions before quenching: 1 mM peptide, 5 mM K2CO3; 2 d at rt, then 4 d at 37° C.
Stability test reagent: HCl (2 μL, 1 M in H2O); Final conditions before quenching: 1 mM peptide, 0.1 M HCl; 2 d at rt, then 4 d at 37° C.
Stability test reagent: Glutathione (2 μL, 50 mM in 1 M Tris; pH 7.4); Final conditions before quenching: 1 mM peptide, 5 mM GSH, 0.1M Tris, pH 7.4; 2 d at rt, then 4 d at 37° C.

[1] = 0.1 M Tris buffer with 5 mM glutathione, 1 mM peptide, 5 mM GSH, 0.1M Tris, pH 7.4, 2 d at rt, then 4 d at 37° C., read-out: % remaining peptide, GSH
[2] = 0.1 M aqueous HCl, 1 mM peptide, 0.1 M HCl, 2 d at rt, then 4 d at 37° C., read-out: % remaining peptide, acid
[3] = 5 mM aqueous K2CO3, 1 mM peptide, 5 mM K2CO3, 2 d at rt, then 4 d at 37° C., read-out: % remaining peptide, base

SMILES	% remaining peptide, base (1 mM peptide, 5 mM K2CO3, 2 d at rt, then 4 d at 37° C.)	remaining at 144 h, 1 mM [1]	remaining at 144 h, 1 mM [2]	stability toward acids (in words)	stability toward bases (in words)	stability toward external thiol nucleophiles (in words)	remaining at 144 h, 1 mM [3]
Cc1ccc(SC[C@H](NC(=O)CNC(=O)[C@H](CC(C)C)NC(=O)[C@H](Cc2ccc(O)cc2)NC(=O)[C@H](Cc2ccccc2)NC(=O)[C@H](CC(N)=O)NC(=O)[C@H](CO)NC(=O)[C@@H](N)CCCNC(=N)N)C(=O)N[C@@H](C)C(=O)NCC(=O)N[C@@H](CC(C)C)C(=O)N[C@@H](C)C(=O)N[C@@H](Cc2c[nH]cn2)C(=O)N[C@@H](CC(=O)O)C(=O)N[C@@H](CCCCN)C(=O)N[C@@H](C)C(=O)N[C@H](C(N)=O)[C@@H](C)O)cc1 (H-RSNFYLGC(X1)AGLAHDKAT-NH2)	83%	90%	83%	stable	stable	stable	–
CCN1C(=O)CC(SC[C@H](NC(=O)CNC(=O)[C@H](CC(C)C)NC(=O)[C@H](Cc2ccc(O)cc2)NC(=O)[C@H](Cc2ccccc2)NC(=O)[C@H](CC(N)=O)NC(=O)[C@H](CO)NC(=O)[C@@H](N)CCCNC(=N)N)C(=O)N[C@@H](C)C(=O)NCC(=O)N[C@@H](CC(C)C)C(=O)N[C@@H](C)C(=O)N[C@@H](Cc2c[nH]cn2)C(=O)N[C@@H](CC(=O)O)C(=O)N[C@@H](CCCCN)C(=O)N[C@@H](C)C(=O)N[C@H](C(N)=O)[C@@H](C)O)C1=O (stereo partly shown) (H-RSNFYLGC(Succinimide(1-Et,3-yl))AGLAHDKAT-NH2)	–	37%	84%	–	decomposed	decomposed	0%
CC(C)C[C@H](NC(=O)CNC(=O)[C@H](C)NC(=O)[C@H](CSCC(N)=O)NC(=O)CNC(=O)[C@H](CC(C)C)NC(=O)[C@H](Cc1ccc(O)cc1)NC(=O)[C@H](Cc1ccccc1)NC(=O)[C@H](CC(N)=O)NC(=O)[C@H](CO)NC(=O)[C@@H](N)CCCNC(=N)N)C(=O)N[C@@H](C)C(=O)N[C@@H](Cc1c[nH]cn1)C(=O)N[C@@H](CC(=O)O)C(=O)N[C@@H](CCCCN)C(=O)N[C@@H](C)C(=O)N[C@H](C(N)=O)[C@@H](C)O (H-RSNFYLGC(Cam)AGLAHDKAT-NH2)	–	85%	63%	unstable	unstable	–	66%
CC(C)C[C@H](NC(=O)CNC(=O)[C@H](C)NC(=O)[C@H](CSCc1ccccc1)NC(=O)CNC(=O)[C@H](CC(C)C)NC(=O)[C@H](Cc1ccc(O)cc1)NC(=O)[C@H](Cc1ccccc1)NC(=O)[C@H](CC(N)=O)NC(=O)[C@H](CO)NC(=O)[C@@H](N)CCCNC(=N)N)C(=O)N[C@@H](C)C(=O)N[C@@H](Cc1c[nH]cn1)C(=O)N[C@@H](CC(=O)O)C(=O)N[C@@H](CCCCN)C(=O)N[C@@H](C)C(=O)N[C@H](C(N)=O)[C@@H](C)O (H-RSNFYLGC(Bn)AGLAHDKAT-NH2)	–	88%	85%	–	–	–	84%

— patent US20190055280A1, “TRANSITION METAL-BASED SELECTIVE FUNCTIONALIZATION OF CHALCOGENS IN BIOMOLECULES” (Massachusetts Institute of Technoloy, priority 2014, published 2019)
